The source of these data is patent US9388148B2, “Acylaminocycloalkyl compounds suitable for treating disorders that respond to modulation of dopamine D3 receptor” (AbbVie Deutschland GmbH & Co. KG, priority 2013, dated 2016).

For data set [1], the target named is T1, human dopamine D3 receptors (Homo sapiens, UniProt P35462).
T1 construct: expressed in transfected cells; host or cells: HEK-293
The data set can be described thus: Dopamine D3 receptor binding ([125I]-iodosulpride displacement). Particulars: membranes of HEK-293 cells with human D3 receptors, 0.1 nM [125I]-iodosulpride. The method, then: (§1) The substance to be tested was either dissolved in methanol/Chremophor® (BASF SE) or in dimethyl sulfoxide and then diluted with water to the desired concentration.
(§2) Each assay mixture was run in triplicate. • The incubation buffer contained 50 mM tris, 120 mM NaCl, 5 mM KCl, 2 mM CaCl2, 2 mM MgCl2 and 0.1% bovine serum albumin, 10 μM quinolone and 0.1% ascorbic acid (prepared fresh daily). […] Each assay mixture was run in triplicate. • The incubation buffer contained 50 mM tris, 120 mM NaCl, 5 mM KCl, 2 mM CaCl2, 2 mM MgCl2 and 0.1% bovine serum albumin. The buffer was adjusted to pH 7.4 with HCl. c) Measurement and analysis: • After having been incubated at 25° C. for 60 minutes, the assay mixtures were filtered through a Whatman GF/B glass fiber filter under vacuum using a cell col-lecting device. The filters were transferred to scintillation viols using a filter transfer system. After 4 ml of Ultima Gold® (Packard) have been added, the samples were shaken for one hour and the radioactivity was then counted in a Beta-Counter (Packard, Tricarb 2000 or 2200CA).

Data set [2] deals with T2, human dopamine D2L receptors (long isoform) (Homo sapiens, UniProt P14416).
T2 construct: expressed in transfected cells; host or cells: HEK-293
T2 sequence (P14416 whole entry, canonical isoform): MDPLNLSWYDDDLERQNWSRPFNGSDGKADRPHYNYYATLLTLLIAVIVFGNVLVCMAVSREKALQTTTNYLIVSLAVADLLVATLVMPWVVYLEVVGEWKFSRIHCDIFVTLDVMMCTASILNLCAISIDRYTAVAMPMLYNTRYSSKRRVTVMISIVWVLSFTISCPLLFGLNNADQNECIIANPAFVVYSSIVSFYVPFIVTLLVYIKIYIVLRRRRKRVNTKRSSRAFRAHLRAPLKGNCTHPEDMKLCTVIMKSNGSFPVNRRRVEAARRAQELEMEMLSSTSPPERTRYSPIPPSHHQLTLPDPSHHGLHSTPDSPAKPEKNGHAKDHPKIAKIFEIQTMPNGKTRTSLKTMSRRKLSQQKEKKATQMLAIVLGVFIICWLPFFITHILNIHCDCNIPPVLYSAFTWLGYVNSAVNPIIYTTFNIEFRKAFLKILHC
Briefly: Dopamine D2L receptor binding ([125I]iodospiperone displacement). To be noted: selectivity ratio, human D2L vs human D3 binding. The method, then: as §1, §2

The nature of data set [3]: Determination of the microsomal half-life / microsomal clearance. Format: in vitro ADME. Particulars: pH 7.4; human liver microsomes, 0.5 μM test substance, 0.25 mg protein/ml, NADPH, 37° C.; read-out: Human mCl (mikrosomal clearance). The method, then:
The metabolic stability of the compounds of the invention was determined in the following assay.
The test substances were incubated in a concentration of 0.5 μM as follows:
0.5 μM test substance are preincubated together with liver microsomes from different species (from rat, human or other species) (0.25 mg of microsomal protein/ml) in 0.05 M potassium phosphate buffer of pH 7.4 in microtiter plates at 37° C. for 5 min. The reaction is started by adding NADPH (1 mg/mL). After 0, 5, 10, 15, 20 and 30 min, 50 μl aliquots are removed, and the reaction is immediately stopped and cooled with the same volume of acetonitrile. The samples are frozen until analyzed. The remaining concentration of undegraded test substance is determined by MSMS. The half-life (T1/2) is determined from the gradient of the signal of test substance/unit time plot, it being possible to calculate the half-life of the test substance, assuming first order kinetics, from the decrease in the concentration of the compound with time. The microsomal clearance (mC1) is calculated from mC1=1n2/T1/2/(content of microsomal protein in mg/ml)×1000 [ml/min/mg] (modified from references: Di, The Society for Biomoleculur Screening, 2003, 453-462; Obach, DMD, 1999 vol 27. N 11, 1350-1359).
Background: Liver microsomes are a subcellular fraction often used to study metabolism.

T1 sequence (P35462 whole entry): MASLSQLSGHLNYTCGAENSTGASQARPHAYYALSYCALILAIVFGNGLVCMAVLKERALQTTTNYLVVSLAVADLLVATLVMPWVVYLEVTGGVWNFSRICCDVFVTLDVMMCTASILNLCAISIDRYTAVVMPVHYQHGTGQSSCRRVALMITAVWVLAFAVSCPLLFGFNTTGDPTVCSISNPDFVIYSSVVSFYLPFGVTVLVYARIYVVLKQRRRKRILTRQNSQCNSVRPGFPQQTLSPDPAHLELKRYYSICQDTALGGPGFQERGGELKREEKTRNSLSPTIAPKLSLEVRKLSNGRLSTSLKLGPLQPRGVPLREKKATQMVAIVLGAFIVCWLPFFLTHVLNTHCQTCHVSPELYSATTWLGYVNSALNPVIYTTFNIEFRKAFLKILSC

By Ki is commonly meant a measure of affinity in units of concentration, obtained from inhibition or displacement. Lower therefore signals a stronger hold on the target. For the compound `CO[C@H]1C[C@H](C(=O)NC2CCC(CCN3CCN(c4cc(C(C)C)nc(C(C)(C)C)n4)CC3)CC2)C1` (relative stereo) [Compound 49, Trans-N-[4-[2-[4-(2-tert-butyl-6-isopropyl-pyrimidin-4-yl)-piperazin-1-yl]ethyl]cyclohexyl]-3-methoxy-cyclobutanecarboxamide], in data set [1], the Ki is below 10 nM. The “D2/D3, Ki (D2L)/Ki (D3)” value in data set [2] is “+++ (+++ >50)”.

In data set [1], `CC(C)c1cc(N2CCN(CCC3CCC(NC(=O)[C@H]4C[C@H](O)C4)CC3)CC2)nc(C(C)(C)C)n1` (relative stereo) [Compound 50, Trans-N-[4-[2-[4-(2-tert-butyl-6-isopropyl-pyrimidin-4-yl)-piperazin-1-yl]ethyl]cyclohexyl]-3-hydroxy-cyclobutanecarboxamide] showed a Ki below 10 nM. Moreover, in data set [2], the “D2/D3, Ki (D2L)/Ki (D3)” value is reported as “+++ (+++ >50)”.

As for `COCc1cc(N2CCN(CC[C@H]3CC[C@H](NC(=O)[C@H]4CC[C@H](O)CC4)CC3)CC2)nc(C(C)(C)C)n1` [Compound 37, trans-N-[trans-4-[2-[4-[2-tert-butyl-6-(methoxymethyl)pyrimidin-4-yl]piperazin-1-yl]ethyl]cyclohexyl]-4-hydroxy-cyclohexanecarboxamide], in data set [2], the “D2/D3, Ki (D2L)/Ki (D3)” value is “+++ (+++ >50)”. Besides, in data set [3], the microsomal CLint at 0.5 μM fell in the range of 20 to 120 µL/min/mg.

`CC(C)(C)c1nc(C2CCC2)cc(N2CCN(CC[C@H]3CC[C@H](NC(=O)[C@H]4C[C@H](O)C4)CC3)CC2)n1.O=C(O)C(F)(F)F` [Compound 38, trans-N-[trans-4-[2-[4-(2-tert-butyl-6-cyclobutyl-pyrimidin-4-yl)piperazin-1-yl]ethyl]cyclohexyl]-3-hydroxy-cyclobutanecarboxamide; 2,2,2-trifluoroacetic acid]: the “D2/D3, Ki (D2L)/Ki (D3)” value in data set [2] was “++ (++ >20)”. Moreover, the microsomal CLint at 0.5 μM in data set [3] is below 20 µL/min/mg.

Regarding `CC(C)(C)c1nc(C2CCC2)cc(N2CCN(CC[C@H]3C[C@H](NC(=O)[C@H]4C[C@H](O)C4)C3)CC2)n1.O=C(O)C(F)(F)F` [Compound 39, trans-N-[trans-3-[2-[4-(2-tert-butyl-6-cyclobutyl-pyrimidin-4-yl)piperazin-1-yl]ethyl]cyclobutyl]-3-hydroxy-cyclobutanecarboxamide; 2,2,2-trifluoroacetic acid], the “D2/D3, Ki (D2L)/Ki (D3)” value in data set [2] was “+++ (+++ >50)”. In data set [3], the microsomal CLint at 0.5 μM was below 20 µL/min/mg.

As for `CC(C)c1cc(N2CCN(CC[C@H]3CC[C@H](NC(=O)[C@H]4CC[C@H](O)CC4)CC3)C[C@@H]2C)nc(C(C)(C)C)n1` [Compound 41, Trans-N-[4-[2-[(3S)-4-(2-tert-butyl-6-isopropyl-pyrimidin-4-yl)-3-methyl-piperazin-1-yl]ethyl]cyclohexyl]-trans-4-hydroxy-cyclohexanecarboxamide], in data set [1], the Ki was below 10 nM. In data set [2], the “D2/D3, Ki (D2L)/Ki (D3)” value is “+++ (+++ >50)”.

The compound `CC(C)c1cc(N2CCN(CCC3CC(NC(=O)[C@H]4CC[C@H](O)CC4)C3)C[C@@H]2C)nc(C(C)(C)C)n1` (stereo partly drawn) [Compound 42, N-[3-[2-[(3S)-4-(2-tert-butyl-6-isopropyl-pyrimidin-4-yl)-3-methyl-piperazin-1-yl]ethyl]cyclobutyl]-trans-4-hydroxy-cyclohexanecarboxamide] yielded a Ki in data set [1] below 10 nM. Moreover, the “D2/D3, Ki (D2L)/Ki (D3)” value in data set [2] is recorded as “+++ (+++ >50)”.

Take `CC(C)c1cc(N2CCN(CC[C@H]3CC[C@@H](NC(=O)[C@H]4CC[C@H](O)CC4)CC3)CC2)nc(C(C)(C)C)n1` [Compound 43, Cis-N-[4-[2-[4-(2 tert-butyl-6-isopropyl-pyrimidin-4-yl)piperazin-1-yl]ethyl]cyclohexyl]-trans-4-hydroxy-cyclohexanecarboxamide]: the Ki in data set [1] is below 10 nM. Also, the “D2/D3, Ki (D2L)/Ki (D3)” value in data set [2] is reported as “+++ (+++ >50)”.

Turning to `C[C@H]1CN(CC[C@H]2CC[C@@H](NC(=O)[C@H]3CC[C@H](O)CC3)CC2)CCN1c1cc(C(F)F)nc(C(C)(C)C)n1` [Compound 44, Cis-N-[4-[2-[(3S)-4-[2-tert-butyl-6-(difluoromethyl)pyrimidin-4-yl]-3-methyl-piperazin-1-yl]ethyl]cyclohexyl]-trans-4-hydroxy-cyclohexanecarboxamide], the inhibitory constant (Ki) in data set [1] was below 10 nM. Also, the “D2/D3, Ki (D2L)/Ki (D3)” value in data set [2] is “+++ (+++ >50)”.

For `CC(C)c1cc(N2CCN(CCC3CC[C@H](NC(=O)[C@H]4CC[C@H](O)CC4)C3)C[C@@H]2C)nc(C(C)(C)C)n1` (stereo partly drawn) [Compound 45, Trans-N-[(1S)-3-[2-[(3S)-4-(2-tert-butyl-6-isopropyl-pyrimidin-4-yl)-3-methyl-piperazin-1-yl]ethyl]cyclopentyl]-4-hydroxy-cyclohexanecarboxamide], in data set [1], the Ki was below 10 nM. Moreover, the “D2/D3, Ki (D2L)/Ki (D3)” value in data set [2] is listed as “+++ (+++ >50)”.

`CC(C)c1cc(N2CCN(CCC3CCC(NC(=O)[C@H]4CC[C@H](O)CC4)CC3)C[C@@H]2C)nc(C(C)(C)C)n1` (stereo partly drawn) [Compound 46, Trans-N-[4-[2-[(3S)-4-(2-tert-butyl-6-isopropyl-pyrimidin-4-yl)-3-methyl-piperazin-1-yl]ethyl]cyclohexyl]-4-hydroxy-cyclohexanecarboxamide] had a Ki in data set [1] below 10 nM. Also, the “D2/D3, Ki (D2L)/Ki (D3)” value in data set [2] was “+++ (+++ >50)”.

For `CC(C)c1cc(N2CCN(CCC3CCC(NC(=O)[C@H]4C[C@H](O)C4)CC3)C[C@@H]2C)nc(C(C)(C)C)n1` (stereo partly drawn) [Compound 48, Trans-N-[4-[2-[(3S)-4-(2-tert-butyl-6-isopropyl-pyrimidin-4-yl)-3-methyl-piperazin-1-yl]ethyl]cyclohexyl]-3-hydroxycyclobutanecarboxamide], the Ki in data set [1] is below 10 nM. Moreover, the “D2/D3, Ki (D2L)/Ki (D3)” value in data set [2] is “+++ (+++ >50)”.
